Measured values: PubChem BioAssay (NCI)
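1) Cells in 96-well plates. 2) Compound, 48 h, 5 concentrations. 3) Linear interpolation between surrounding doses. 4) Unreached endpoint = highest concentration. At the TGI there is no net growth.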

Legend:
SNB-78 CNS = assay: growth of human tumour cells (NCI), 48 h
RXF-631 renal = assay: growth of human tumour cells (NCI), 48 h

Row | Structure (SMILES) | TGI (SNB-78 CNS) [µM] | TGI (RXF-631 renal) [µM]
1 | O=C1c2ccccc2OP(=O)(OCC(F)(F)F)OC1(C(F)(F)F)C(F)(F)F (stereo unspecified) | > 100 | 
2 | COc1ccc(N=Cc2ccc(N(CCC#N)S(=O)(=O)c3ccccc3)cc2)cc1 | > 100 | > 100
3 | C=CCC(N(C)C(=O)[C@H](Cc1ccccc1)NC(=O)OCc1ccccc1)P(=O)(Oc1ccccc1)Oc1ccccc1 (stereo partly specified) | > 100 | 
4 | CN(C)C(=S)/N=c1\ssc(=S)n1Cc1cccnc1 | > 100 | > 100
5 | CCOc1ccc(/C(Cl)=C(\C=O)c2ccc(OC)c(OC)c2)cc1OCC | > 100 | 
6 | CC(C)CC(NC(=O)OC(C)(C)C)C(=O)Nc1ccc(Nc2nc(F)nc(-c3c4ccccc4c4n3CCS4)n2)cc1 (stereo unspecified) | 44.3 | 
7 | CCC12CCCN(Cc3ccccc3)C1c1c(n(C)c3ccccc13)C(C(=O)OC)C2 (stereo unspecified) |  | > 239
8 | Nc1nc(SCc2ccc([N+](=O)[O-])cc2)nc2c1ncn2C1OC(CO)C(O)C1O (stereo unspecified) | > 100 | 
9 | CN(C)C(=S)/N=c1\ssc(=S)n1Cc1ccccc1 | > 100 | 
